Data as given in ChEMBL document CHEMBL1129601, “Inhibitors of acyl-CoA: cholesterol O-acyl transferase (ACAT) as hypocholesterolemic agents. CI-1011: an acyl sulfamate with unique cholesterol-lowering activity in animals fed noncholesterol-supplemented diets” (J Med Chem, 1996).
“And” between values parts separate entries of the source, which are not always exact repeats. Identical values can stand only once.

Key:
Rattus norvegicus [1] = assay: Evaluated for %change in Normal, Chow fed rats for total cholesterol plasma level in rats at the dose of 10 mg/kg; assay type: functional
Rattus norvegicus [2] = assay: Evaluated for %change in cholesterol fed rats for HDL-C at the dose of 0.03 mg/kg determined by Chronic screen test; assay type: functional
Rattus norvegicus [3] = assay: Evaluated for %change in Normal, Chow fed for rats Plasma total triglyceride plasma level in rats at the dose of 10 mg/kg; assay type: functional
Rattus norvegicus [4] = assay: Effect on the plasma cholesterol level in rats at the dose of 10 mg/kg by Acute screen test; assay type: functional, organism-based; design: dose 10 mg/kg
Rattus norvegicus [5] = assay: Evaluated for %change in cholesterol fed rats at the dose of 1 mg/kg determined by Acute screen test; assay type: functional
Rattus norvegicus [6] = assay: Effect on the Cholesterol fed rats for total cholesterol level in rats at the dose of 0.3 mg/kg by Chroinc screen test; assay type: functional
Rattus norvegicus [7] = assay: Evaluated for %change in cholesterol fed rats for total cholesterol at the dose of 0.01 mg/kg determined by Chronic screen test; assay type: functional
Rattus norvegicus [8] = assay: Effect on the plasma cholesterol level in rats at the dose of 1 mg/kg by Acute screen test; assay type: functional, organism-based; design: dose 1 mg/kg
Rattus norvegicus [9] = assay: Evaluated for %change in cholesterol fed rats for non-HDL-C at the dose of 0.001 mg/kg determined by Chronic screen test; assay type: functional
Rattus norvegicus [10] = assay: Effect on the Cholesterol fed rats for HDL-C in rats at the dose of 10 mg/kg by Chroinc screen test; assay type: functional
Oryctolagus cuniculus [11] = assay: Effect on Rabbits (Fed a Cholesterol-Free Casein Diet ) for plasma cholesterol at the dose of 3 mg/kg (post treatment); assay type: functional, organism-based; design: dose 3 mg/kg
Rattus norvegicus [12] = assay: Evaluated for %change in Normal, Chow fed for rats Plasma total triglyceride plasma level in rats at the dose of 3 mg/kg; assay type: functional
Rattus norvegicus [13] = assay: Effect on the Cholesterol fed rats for HDL-C in rats at the dose of 0.1 mg/kg by Chroinc screen test; assay type: functional
Rattus norvegicus [14] = assay: Effect on the Cholesterol fed rats for total cholesterol level in rats at the dose of 0.01 mg/kg by Chroinc screen test; assay type: functional
Rattus norvegicus [15] = assay: Evaluated for %change in cholesterol fed rats for total cholesterol at the dose of 10 mg/kg determined by Chronic screen test; assay type: functional
Rattus norvegicus [16] = assay: Evaluated for %change in cholesterol fed rats for non-HDL-C at the dose of 0.01 mg/kg determined by Chronic screen test; assay type: functional
Rattus norvegicus [17] = assay: Effect on the Cholesterol fed rats for total cholesterol level in rats at the dose of 0.001 mg/kg by Chroinc screen test; assay type: functional
Rattus norvegicus [18] = assay: Evaluated for %change in cholesterol fed rats for HDL-C at the dose of 0.01 mg/kg determined by Chronic screen test; assay type: functional
Oryctolagus cuniculus [19] = assay: Effect on Rabbits (Fed a Cholesterol-Free Casein Diet ) for plasma cholesterol at the dose of 10 mg/kg (pretreatment); assay type: functional, organism-based; design: dose 10 mg/kg
Rattus norvegicus [20] = assay: Evaluated for %change in cholesterol fed rats for total cholesterol at the dose of 0.3 mg/kg determined by Chronic screen test; assay type: functional
Rattus norvegicus [21] = assay: Evaluated for %change in cholesterol fed rats for HDL-C at the dose of 10 mg/kg determined by Chronic screen test; assay type: functional
Rattus norvegicus [22] = assay: Effect on the Cholesterol fed rats for non-HDL-C in rats at the dose of 0.001 mg/kg by Chroinc screen test; assay type: functional
Rattus norvegicus [23] = assay: Effect on the Cholesterol fed rats for non-HDL-C in rats at the dose of 0.1 mg/kg by Chroinc screen test; assay type: functional
Rattus norvegicus [24] = assay: Evaluated for %change in cholesterol fed rats for non-HDL-C at the dose of 0.03 mg/kg determined by Chronic screen test; assay type: functional
Rattus norvegicus [25] = assay: Effect on the Cholesterol fed rats for non-HDL-C in rats at the dose of 1 mg/kg by Chroinc screen test; assay type: functional

CC(C)c1cc(C(C)C)c(CC(=O)NS(=O)(=O)Oc2c(C(C)C)cccc2C(C)C)c(C(C)C)c1 [AVASIMIBE]
Change (Rattus norvegicus [1]): -25%
Change (Rattus norvegicus [2]): -12%
Change (Rattus norvegicus [3]): -55%
Plasma cholesterol (Rattus norvegicus [4]): 51 mg/dL
Change (Rattus norvegicus [5]): -60%
TC (Rattus norvegicus [6]): 90
Change (Rattus norvegicus [7]): 16%
Plasma cholesterol (Rattus norvegicus [8]): 72 mg/dL
Change (Rattus norvegicus [9]): 3%
HDL-C (Rattus norvegicus [10]): 36
Plasma cholesterol (Oryctolagus cuniculus [11]): 171 mg/dL
Change (Rattus norvegicus [12]): -44%
HDL-C (Rattus norvegicus [13]): 16 and 18
TC (Rattus norvegicus [14]): 619
Change (Rattus norvegicus [15]): -69%
Change (Rattus norvegicus [16]): 17%
TC (Rattus norvegicus [17]): 551
Change (Rattus norvegicus [18]): -12%
Plasma cholesterol (Oryctolagus cuniculus [19]): 209 mg/dL
Change (Rattus norvegicus [20]): -60%
Change (Rattus norvegicus [21]): 155%
Non-HDL-C (Rattus norvegicus [22]): 535
Non-HDL-C (Rattus norvegicus [23]): 114 and 306
Change (Rattus norvegicus [24]): -38%
Non-HDL-C (Rattus norvegicus [25]): 61
